Data set [1] concerns C. parapsilosis. Briefly: Broth microdilution antifungal assay (CLSI M27-A2), clinical isolates. Type of data set: cell-based, Candida parapsilosis. On the procedure:
(§1) Clinical isolates were provided by the Microbiology Department of the Medical School, UANL: isolates 97 and 98 of C. albicans, isolates 83 and 84 of C. glabrata, isolates 95 and 96 of C. parapsilosis, isolates 105 and 166 of C. tropicalis, and isolates 137 and 168 of C. krusei.
(§2) Inoculates from the above-mentioned isolates were prepared and growing on Sabouraud agar. The extracts were tested using microdilution assay according to the protocol M27-A2 defined by the Clinical Laboratory Standards Institute. Two clinical isolates were used for each species of Candida, and each test was made in duplicate. Isolates 83 and 84 of C. glabrata are resistant strains to fluconazole. Serial two-fold dilutions ranging from 2 to 500 μg/mL were made for all extracts, fractions, and isolated compounds. The minimal inhibitory concentration (MIC) was defined as the lowest tested extract concentration that inhibits 100% of organism growth compared to the growth of the drug-free control.
(In general: Dilution methods test growth across graded concentrations, often in twofold steps.)

In data set [2] the test system is C. tropicalis. The description is as above. The data set is classed as cell-based, Candida tropicalis. On the procedure:
as §1, §2

Data set [3] has as its system C. krusei. The description is as above. Type of data set: cell-based, Candida krusei. The protocol:
as §1, §2

For another data set, the system named is C. glabrata. The description is as above. The data set is classed as cell-based, Candida glabrata. On the procedure: as §1, §2
The next data set relates to Candida albicans. Described as above. The data set is classed as cell-based. On the procedure: as §1, §2
Data set [4] in a line: In vitro cytotoxic assay on Vero cell line (MTT). The data set is classed as cell-based. The conditions noted are these: African green monkey, Vero cells, mean (n = 3) ± SD. On the procedure: The cytotoxicity assay was performed by the 3-(4,5-dimethylthiazol-2-yl) 2,5-diphenyltetrazolium bromide (MTT) assay as previously described. The Vero cell line was maintained in DMEM supplemented with 2% FBS, streptomycin, and penicillin at 1%. All cell cultures were incubated at 37 °C in a humidified atmosphere of 5% CO2. Cells were harvested, counted, and transferred into 96 well plates and incubated for 24 h prior to the addition of test compounds. Serial dilutions of test samples were prepared by dissolving compounds in DMSO followed by dilution with DMEM to yield the final DMSO concentration in the assay well as 1%. Stock solutions of fractions and compounds 1, 2, and 3 were prepared at […] and diluted further to yield concentrations ranging from 2000–15.6 μg/mL. The plates were incubated for 48 h. MTT (3-[4,5-dimethylthiazol-2-yl]-2,5-diphenyltetrazolium bromide) (5 mg) was dissolved in 1 mL of Phosphate Buffer Solution (PBS) and 10 μL of it was added to each of the 96 wells. The plates were incubated at 37 °C for 3 h. The solution in each well-containing media, unbound MTT and dead cells were removed by suction and 100 μL of DMSO was added to each well. The plates were then shaken and optical density was recorded using a microplate reader at 540 nm. Doxorubicin was used as positive control and DMSO as solvent control. The CC50 was determined as the concentration of extract required reducing cell viability by 50%, taking as 100%, the untreated cells. The experiments were performed in triplicate for each extract. In parallel, we performed the same experiment using untreated cells as a control.

Data set [5] can be described thus: Brine shrimp lethality bioassay. To be noted: Artemia salina, in vivo; 24 h counts, mean (n = 3) ± SD. On the procedure: In order to evaluate the toxicity of the compounds with antifungal activity obtained during separation, a test of lethality to Artemia salina brine shrimp was made. Concentrations of 1, 10, 100, and 500 ppm of each active fraction and each compound were tested. […] LC50 values greater than 200 ppm were considered non-toxic.

Another data set concerns C. albicans. The conditions noted are these: cited from earlier work.
The test system of data set [6] is C. krusei. To be noted: C. krusei ATCC 20298; cited from earlier work.
Data set [7] concerns C. parapsilosis. The conditions noted are these: C. parapsilosis ATCC 20019; cited from earlier work.
Data set [8] deals with C. tropicalis. Further details: method as in doi:10.1016/j.phytol.2015.02.006. The conditions noted are these: C. tropicalis ATCC 750; cited from earlier work.
For another data set, the system named is Candida glabrata. To be noted: cited from earlier work.
Setting [9] is: Lodderomyces parapsilosis, Cp isolate 95, read-out: MIC.
The mark [10] stands for this setting: Lodderomyces parapsilosis, Cp isolate 96, read-out: MIC.
Where [11] appears, read: Candida tropicalis, Ct isolate 105, read-out: MIC.
[12] abbreviates: Pichia kudriavzevii, Ck isolate 137, read-out: MIC.
The mark [13] stands for this setting: Pichia kudriavzevii, Ck isolate 168, read-out: MIC.
The mark [14] stands for this setting: Nakaseomyces glabratus, Cg isolate 83, fluconazole-resistant clinical isolate, read-out: MIC.
Setting [15] is: Nakaseomyces glabratus, Cg isolate 84, fluconazole-resistant clinical isolate, read-out: MIC.
The mark [16] stands for this setting: Candida albicans, Ca isolate 97, read-out: MIC.
Setting [17] is: Nakaseomyces glabratus, C. glabrata, isolate not stated, read-out: MIC.

In brackets after ≈: the same amount, converted by molar mass. Read-outs that look alike come from different tables or passages of the source.

MIC, CC50 and LC50 data for six compounds are collected here from article PMC8510013, “Active Flavonoids from Colubrina greggii var. greggii S. Watson against Clinical Isolates of Candida spp” (Molecules, 2021).

As usually defined, the MIC is the smallest concentration in the dilution series that meets the test's criterion for growth inhibition. For `OC(Cn1cncn1)(Cn1cncn1)c1ccc(F)cc1F` [Fluconazol, reference compound], the MIC was determined as 0.5 µg/mL (≈ 1.63 µM) in the data set with C. parapsilosis [1] (setting [9]); 1 µg/mL (≈ 3.27 µM) with C. parapsilosis [1] (setting [10]); 2 µg/mL (≈ 6.53 µM) in the data set with C. tropicalis [2] (setting [11]); 2 µg/mL (≈ 6.53 µM) in the data set on C. tropicalis [2] (Ct isolate 166); 32 µg/mL (≈ 104 µM) in the data set with C. krusei [3] (setting [12]); 4 µg/mL (≈ 13.1 µM) with C. krusei [3] (setting [13]). The MIC was 32 µg/mL (≈ 104 µM) in the data set on C. glabrata (setting [14]), 63 µg/mL (≈ 206 µM) in the data set on C. glabrata (setting [15]), 4 µg/mL (≈ 13.1 µM) with Candida albicans (Ca isolate 98) and 4 µg/mL (≈ 13.1 µM) with Candida albicans (setting [16]).

What is called CC50 is the concentration that lowers cell viability or growth by half. Low readings indicate greater toxicity to the cells, high ones lower toxicity to the cells. In general, LC50 refers to the concentration lethal to half of the exposed cells or organisms. A higher LC50 goes with lower toxicity. For the compound `C[C@@H]1O[C@@H](Oc2c(-c3ccc(O)cc3)oc3cc(O)cc(O)c3c2=O)[C@H](O[C@@H]2OC[C@@H](O)[C@H](O)[C@H]2O)[C@H](O)[C@H]1O` [Compound 3, kaempferol 3-O-α-L-rhamnopyranosyl-L-(2→1)-O-β-xylopyranoside], the MIC with C. parapsilosis [1] (setting [9]), with C. parapsilosis [1] (setting [10]), in the data set on C. tropicalis [2] (setting [11]), with C. tropicalis [2] (Ct isolate 166), with C. krusei [3] (setting [12]) and with C. krusei [3] (setting [13]) was above 500 µg/mL in each case. Besides, the minimal inhibitory concentration (MIC) with C. glabrata (setting [17]) is 16 µg/mL (≈ 28.3 µM); with C. glabrata (setting [14]), 16 µg/mL (≈ 28.3 µM); in the data set on C. glabrata (setting [15]), 16 µg/mL (≈ 28.3 µM); in the data set with Candida albicans (Ca isolate 98), above 500 µg/mL; in the data set on Candida albicans (setting [16]) it was above 500 µg/mL. Besides, in data set [4], the cytotoxic concentration (CC50) at 48 h is above 2000 µg/mL. The same compound yielded a 50% lethal concentration (LC50) at 24 h in [5] of 254.8 ± 0.024 µg/mL (≈ 451 µM).

With “Kaempferol-3-O-rutinoside [reference compound]”, the MIC in the data set on C. albicans (Candida albicans ATCC 14053 and ATCC10231) was 500 µg/mL.

`C[C@@H]1O[C@@H](Oc2c(-c3ccc(O)c(O)c3)oc3cc(O)cc(O)c3c2=O)[C@H](O)[C@H](O)[C@H]1O` [Compound 1, quercetin 3-O-α-L-rhamnoside]: the MIC with C. parapsilosis [1] (Cp isolate 95) is 125 µg/mL (≈ 279 µM); against C. parapsilosis [1] (Cp isolate 96), 125 µg/mL (≈ 279 µM); against C. parapsilosis [1] (Lodderomyces parapsilosis), 125 µg/mL (≈ 279 µM); with C. tropicalis [2] (Candida tropicalis) it was above 500 µg/mL; against C. tropicalis [2] (Ct isolate 166), above 500 µg/mL; in the data set with C. krusei [6], “below 250 μg/mL”. Moreover, the MIC entry was “below 250 μg/mL” in the data set on C. parapsilosis [7]; “below 250 μg/mL” with C. tropicalis [8]; 500 µg/mL (≈ 1120 µM) in the data set on C. krusei [3] (Ck isolate 137); 500 µg/mL (≈ 1120 µM) against C. krusei [3] (Ck isolate 168); 500 µg/mL (≈ 1120 µM) in the data set on C. krusei [3] (Pichia kudriavzevii); “below 250 μg/mL” in the data set on C. albicans (C. albicans ATCC 18804). The minimal inhibitory concentration (MIC) was 16 µg/mL (≈ 35.7 µM) against C. glabrata (Cg isolate 83, fluconazole-resistant clinical isolate); 16 µg/mL (≈ 35.7 µM) in the data set with C. glabrata (Cg isolate 84, fluconazole-resistant clinical isolate); 16 µg/mL (≈ 35.7 µM) against C. glabrata (Nakaseomyces glabratus); 7.8 µg/mL (≈ 17.4 µM) with Candida glabrata (isolates 510, 493, 482, 531 of C. glabrata); 500 µg/mL (≈ 1120 µM) in the data set with Candida albicans (Ca isolate 97); 500 µg/mL (≈ 1120 µM) in the data set on Candida albicans (Ca isolate 98). For the same compound, the MIC against Candida albicans (Candida albicans) stood at 500 µg/mL (≈ 1120 µM). The compound further came in with a CC50 at 48 h in data set [4] of 1660 ± 81 µg/mL (≈ 3700 µM). Also, in [5], the LC50 at 24 h is above 500 µg/mL.

As to `O=c1c(O)c(-c2ccc(O)cc2)oc2cc(O)cc(O)c12` [kaempferol, reference compound], the MIC in the data set with Candida glabrata (six clinical isolates of Candida glabrata including one resistant to fluconazole) is reported as 31.5 µg/mL (≈ 110 µM).

As for `C[C@@H]1O[C@@H](Oc2c(-c3ccc(O)c(O)c3)oc3cc(O)cc(O)c3c2=O)[C@H](O[C@@H]2OC[C@@H](O)[C@H](O)[C@H]2O)[C@H](O)[C@H]1O` [Compound 2, quercetin 3-O-α-L-rhamnopyranosyl-L-(2→1)-O-β-xylopyranoside], the MIC in the data set with C. parapsilosis [1] (setting [9]), with C. parapsilosis [1] (setting [10]), in the data set with C. tropicalis [2] (setting [11]), in the data set on C. tropicalis [2] (Ct isolate 166), with C. krusei [3] (setting [12]) and in the data set on C. krusei [3] (setting [13]) was above 500 µg/mL in each case. Besides, the MIC in the data set with C. glabrata (setting [17]) was 63 µg/mL (≈ 109 µM); in the data set on C. glabrata (setting [14]), 63 µg/mL (≈ 109 µM); with C. glabrata (setting [15]), 63 µg/mL (≈ 109 µM); against Candida albicans (Ca isolate 98), above 500 µg/mL; with Candida albicans (setting [16]), above 500 µg/mL. Moreover, in data set [4], the CC50 at 48 h is above 2000 µg/mL. In addition, in data set [5], the LC50 at 24 h turned out to be 322.8 ± 0.009 µg/mL (≈ 556 µM).
